{"source": "patent US20160138113A1", "about": "“METHODS AND COMPOSITIONS FOR THE DIAGNOSIS, PROGNOSIS AND TREATMENT OF BRAIN METASTASIS” (MEMORIAL SLOAN-KETTERING CANCER CENTER, priority 2013, published 2016)", "test_system": "CTSS", "test": "shRNA-mediated CTSS knockdown in Br-M cells (qPCR, western blot)", "format": "cell-based, human", "excerpt": "Five shRNA sequences targeting CTSS were obtained from the RNAi Codex and RNAi Consortium. shRNA sequences were inserted into the targeting hairpin sequence for the pRetroSuper vector. Correct insertion into the vector was verified by digestion and sequencing of the vector. Plasmids with the correct shRNA targeting sequence were transfected into H29 viral packaging cells. Viral particles were concentrated from the H29 cell supernatant, added to the target cells in the presence of polybrene and cells were selected with puromycin. One of the […] shRNAs (CTSS shRNA: GATAAAGTTTGCTAAGTAA—TTACTTAGCAAACTTTATC) was used for subsequent experiments to target CTSS with 90% KD efficiency. A non-targeting shRNA [CGCCATAAATATAACTTTA—TAAAGTTATATTTATGGCG] was used as control.\nRNA was isolated with Trizol, DNase treated, and 0.2 μg of RNA was used for cDNA synthesis. Details about the Taqman assays can be found in Table 4. […]\nConditioned media (CM) from Br-M cell lines was generated by incubating confluent cell layers in serum-free DMEM media for 24 hours. […] Protein was quantified using the BCA assay (Pierce). […] Membranes were probed with antibodies as indicated in Table 5 and detected using the appropriate HRP-conjugated secondary antibodies using chemoluminescence detection (Millipore). Bands from western blots were quantified in the dynamic range using the Gel analysis module in ImageJ software.", "data": [{"substance": "CTSS shRNA: shRNA targeting CTSS: GATAAAGTTTGCTAAGTAA—TTACTTAGCAAACTTTATC, in pRetroSuper vector (loop; in pRetroSuper vector)", "values": [{"measurement": "CTSS KD efficiency", "result": 90, "unit": "%"}]}]}
